# A melting point compilation (Tetko et al.; mined from patent text by program, amines drawn as free bases though some values may be those of a salt)
row,melting point [°C],Structure (SMILES)
1,75 to 77,COc1cccc(C(=O)Nc2nc(C)c(C(=O)NCc3ccccc3)s2)c1
2,332 to 334,CCC(C)(C)C(=O)NNc1cc(NC(=O)CC(C)(C)C)cc(NC(=O)CC(C)(C)C)c1
3,149 to 151,O=C(NCC12CC3CC(CC(C3)C1)C2)c1cccc(F)c1Cl
4,211 to 213,C[Si](C)(C)c1cccc(NC(=O)c2ccc(C(=O)O)cc2)c1
5,200,"CC(=O)NCCCC(=O)OC1c2ccccc2C(=O)N1c1ccc2ccc(Cl)nc2n1 (single isomer, unassigned; (+))"
6,109 to 110,O=S(=O)(NCCCCOc1ccc(-n2cnnn2)cc1)c1ccc(Br)cc1
7,60,C=CCC=CCC=CCCCCCCCc1cccc(O)c1
8,131 to 133,CN(C)C(=O)CN1CCC(c2ccc(Nc3nc4c(-c5cnn(-c6ccc(F)cc6)c5)cccn4n3)cc2)CC1
9,162 to 164,CCOC(=O)COc1cccc(N)c1
10,158 to 160,COc1ccc(C(=O)Nc2c(F)cccc2F)cc1OC1CCCC1
11,189 to 190,N=C(NCCCOc1cccc2[nH]c3ccccc3c12)c1cccs1
12,144 to 147,C=CCOCc1c(C=O)sc2c(=O)c(C(=O)NCc3ccc(Cl)cc3)cn(C)c12
13,96 to 97,CCOC(=O)c1conc1-c1ccc(F)c(Br)c1
14,140 to 141,CCc1cc(C(=O)c2ccccc2Cl)c(-n2c(C)nnc2CO)s1
15,115 to 117,CC(C)[C@H](N)C(=O)NC(=O)N(CCCl)N=O
16,73 to 77,COc1ccc(C(C)C)cc1-c1cc(-c2nnnn2C2CCN(C(=O)OC(C)(C)C)C2)c(OCc2ccccc2)cc1OCc1ccccc1 (stereo not given)
17,305 to 307,Cc1ccc(CNc2cccc3c2C(=O)N(C2CCC(=O)NC2=O)C3=O)o1 (stereo not given)
18,201 to 203,CN1CCN(C(=O)c2ccc(-c3cnc4c(c3)N(C(=O)c3cc(F)ccc3F)CCN4)cc2)CC1
19,171,O=C(NN=Cc1ccc2ccccc2n1)c1ccccc1
20,127,Cc1cc(C)nc(NC(=O)NS(=O)(=O)c2ccsc2C(=O)O)n1
21,223 to 230,CS(=O)(=O)c1ccc(-n2cnc(Cl)c2-c2cnc(Cl)c(Cl)c2)cc1
22,164 to 167,Cn1c(COc2ccc(CC3SC(=O)NC3=O)cc2)nc2ccc(Oc3ccc(NC(=O)NC45CC6CC(CC(C6)C4)C5)cc3)cc21 (stereo not given)
23,120 to 122,Nc1ncnc2c1c(-c1cccc(O)c1)cn2-c1cccc(OCCCn2ccnc2)c1
24,211 to 213,CCn1cc(CN(C(=O)C2CCCc3c(O)cccc32)c2ccc(OC)cc2)cn1 (stereo not given)

row,melting point [°C],Structure (SMILES)
1,238 to 240,Cc1cncc(C(=O)Nc2cc(-c3c(-c4ccc(F)c(C)c4)nc4cccnn34)ccn2)c1
2,82 to 83,CCCCCCCCCCn1c(C)cc(C)c(C#N)c1=O
3,75 to 76,CCOC(=O)c1ccccc1OC
4,196 to 199,Cn1cccc1C(=O)C(C#N)C(=O)Nc1c(Cl)cccc1Cl (stereo not given)
5,178 to 179,CC(C)(CNc1ccnc2cc(Cl)ccc12)NCc1ccc(Cl)c(Cl)c1
6,74 to 78,CC12CCC3c4ccc(OCc5ccccc5)cc4CCC3C1CCC2OCc1ccccc1 (stereo not given)
7,232 to 234,c1ccc(-c2nc(SCCOCCSc3nc(-c4ccccc4)c(-c4ccccc4)[nH]3)[nH]c2-c2ccccc2)cc1
8,126 to 127,CCCCc1nc2cccc(C(=O)OC)c2n1Cc1ccc(-c2ccccc2CO)cc1
9,139 to 140,c1ccc(CN2CCOC(CN3c4ccccc4CCc4ccccc43)C2)cc1 (stereo not given)
10,192 to 194,COc1ccc2c(c1)CCC1CCNC(=O)C(CC3(C)OCCO3)=C21 (stereo not given)
11,45 to 47,C=CCNC(=O)[C@H]1NCSC1(C)C
12,81 to 82,O=C1CCCc2ccccc2N1Cc1cccc(Br)c1
13,204 to 206,CCOC(=O)C1=C(C)NC(C#N)=C(C(=O)OCC)C1c1cc([N+](=O)[O-])ccc1Cl (stereo not given)
14,230 to 235,COc1cc2c(Cl)c(C#N)cnc2cc1NC(C)=O
15,100 to 101,Cn1cccc1-c1nc2cc(Cl)cc(CCc3ccccn3)c2o1
16,118 to 120,NC(=NCC(F)(F)F)Nc1ccnc(OCCCc2ccccn2)n1
17,108 to 112,O=C(O)Cc1csc(Nc2ccc(Cl)c(C(F)(F)F)c2)n1
18,148 to 149,Cc1c(NC(=O)c2cccc(OCc3ccccc3)c2)ccc2cc(CN3CCCC3)cnc12
19,153 to 155,CCN(CC)C(=O)Nc1ccc(NCc2ccccc2Cl)cc1N
20,121 to 122,COc1ccc(CNc2ncnc3c2ncn3C2OC(CNC(C)=O)C(O)C2O)cc1 (stereo not given)
21,178 to 180,CCOC1(OC)CC(C)=C(CCc2cccc(OC)c2)C=C1OC (stereo not given)
22,326 to 328,CN1CCCC(COc2ccc(/C=c3\[nH]c(=O)/c(=C/c4ccccc4)[nH]c3=O)nc2)C1 (stereo not given)
23,145 to 149,COc1cc(C(=O)NC(C)(C)C)ccc1S(=O)(=O)Cl
24,154 to 155,CC(=O)N1CCc2cc(Br)cc(N)c21

row,melting point [°C],Structure (SMILES)
1,171 to 172,COC(=O)c1cc(CCNc2ncnc3nccnc23)ccc1Oc1cc(C(F)(F)F)ccn1
2,166,N#CCCN1CC(=O)N(CCC#N)CC1=O
3,121,COc1cc(-c2nc(NC(=O)c3cc4ccccc4n3CCCCCC(=O)O)sc2CCC2CCCCC2)c(OC)cc1Cl
4,79 to 80,COC(=O)C(C)Oc1ccc([N+](=O)[O-])cc1 (stereo not given)
5,89 to 90,COc1ccc(S(=O)(=O)NC(CCF)C(=O)OC(C)(C)C)cc1 (stereo not given)
6,127 to 129,CC(C)(C)C1CCC(=O)C(CC(=O)c2ccccc2)C1 (stereo not given)
7,205 to 208,Nc1c2c(nc3ccccc13)-c1ccc(Cl)cc1CC2
8,215 to 216,CN(C)c1ccc(-c2nc(Cl)c(CC(N)=O)n2Cc2ccccc2)cc1
9,133,CC(=O)N(O)Cc1cccc(C(O)C#Cc2ccsc2)c1 (stereo not given)
10,196 to 198,CC(=O)c1ccc(=O)[nH]c1C
11,218 to 220,CCc1nc2c(N)nc3cc(OCCc4c[nH]c5ccccc45)ccc3c2s1
12,150 to 152,Cc1cc(Oc2ncc(C(F)(F)F)cc2Cl)nn1C(=O)Nc1ccc(Cl)c(Cl)c1
13,335,CC(C)(C)NC(=O)Nc1nc2nc(N)ncc2cc1-c1c(Cl)cccc1Cl
14,222 to 223,CC(=O)Nc1ccc(/C=C/C(=O)NCC(=O)N(C)c2ccc(Cl)c(CBr)c2Cl)cn1
15,202 to 204,CC(C)NC(C)CC1=C2c3ccc(O)cc3CCC2CCNC1=O (stereo not given)
16,177 to 179,CCOC(=O)Cc1csc(NC(=S)Nc2cc(Cl)ccc2C)n1
17,> 310,Oc1nc2cc(F)c(F)cc2nc1O
18,278 to 280,O=C1NC(C(Cl)(Cl)Cl)Nc2ccc([N+](=O)[O-])cc21 (stereo not given)
19,90 to 91,C=CCN(C)C(=O)Nc1cc(C(C)(C)C)on1
20,148 to 150,COc1cc(-c2cc(C)no2)cc2oc(=O)c(C)c(C)c12
21,108 to 109,Cn1cnc2c(NC3CCCC3)ncnc21
22,77 to 79,Cc1cnc2c(c1)nc(C)n2-c1ccccc1
23,203 to 206,O=C(O)c1ccc(Cn2cc(C3c4ccc(C(F)(F)F)cc4C=Cc4cc(C(F)(F)F)ccc43)c(=O)[nH]c2=O)o1
24,192 to 194,COc1ccc(S(=O)(=O)NC(C)c2cc(F)ccc2-c2ccc(F)cc2F)c(OC)c1 (stereo not given)

row,melting point [°C],Structure (SMILES)
1,108 to 109,CC[C@@H](c1ccccc1)N(Cc1ccc(C(=O)O)cc1)S(=O)(=O)c1ccc(F)c(F)c1
2,168,NC(=O)N(O)Cc1ccc(-c2ccccn2)s1
3,255 to 256,NC(=O)c1cc([N+](=O)[O-])c(Oc2ccccc2)c(S(N)(=O)=O)c1
4,272 to 274,CSc1[nH]n(C2CCCC2)c2nc(-c3ccncc3)nc(=O)c1-2
5,175 to 178,O=C1NCCCCC1c1cccc(O)c1 (stereo not given)
6,87 to 88,O=S(=O)(c1ccc2ccccc2c1)N1CCOc2ccc(CCCI)cc21
7,137 to 139,O=Cc1cccn2ccnc12
8,119 to 120,O=[N+]([O-])c1ccc2c3c([nH]c2c1)CCCCCC3
9,152,Cc1c(CC(C)(C)C(=O)O)n(Cc2ccc(Cl)cc2)c2ccc(OCc3ccc4ccccc4c3)cc12
10,82.1,CCC(C#N)(COc1ccc(Cl)cc1)c1cccnc1 (stereo not given)
11,183 to 185,CNC(=O)[C@@H](C[C@H](O)[C@H](CC1CCCCC1)NC(=O)[C@H](Cc1cscn1)NC(=O)OC(C)(C)C)C(C)C
12,113 to 116,COC(=O)[C@H](Cc1c[nH]cn1)NC(=O)[C@H](Cc1ccccc1)NC(=O)OCc1ccccc1
13,150 to 154,CN(C)Nc1c([N+](=O)[O-])cc(C(F)(F)F)c(N)c1[N+](=O)[O-]
14,183 to 185,Oc1ccc(-c2nc3cc(O)cc(Br)c3o2)c(C(F)(F)F)c1
15,110 to 112,CCOC(=O)O[C@H](c1ccc(S(C)(=O)=O)cc1)[C@@H](CF)NC(=O)C(Cl)Cl
16,176 to 178,Cc1cc2c(cc1N1CCc3ccccc31)OC(=O)C2C (stereo not given)
17,293 to 294,COc1ccc(-c2[nH]c3cn[nH]c(=O)c3c2Cl)cc1OC1CC1
18,125 to 127,CC(C(N)=O)c1ccc(NS(=O)(=O)C(C)C)cc1 (stereo not given)
19,150 to 152,CCCCc1ccc2c(c1)CC(C(=O)OCC)=NN2
20,184 to 185,Cc1c2ccccc2c(-c2ccc(O)cc2)c2c1sc1ccccc12
21,72 to 74,COC(=O)CCn1ncc(-c2ccccc2)c1-c1ccccc1

row,Structure (SMILES),melting point [°C]
1,COC(=O)c1ccc2c(c1)C(SCCCl)c1ccccc1CO2 (stereo not given),100 to 102
2,N#Cc1nn(-c2c(Cl)cc(C(F)(F)F)cc2Cl)cc1I,83 to 84
3,CC1CC(=O)N(c2ccccc2)c2cc(Cl)ccc2N1C (stereo not given),113 to 114
4,CNC(=O)ON=C1SCC(=O)N1C(C)C,94 to 96
5,CC(=O)OC1CCC2C3CCC4=C([N+](=O)[O-])C(=O)CCC4(C)C3CCC12C (stereo not given),216 to 217
6,CN(C)C1(c2ccccc2)CCC(CNC(=O)N2CCCC(c3c[nH]c4ccccc34)C2)CC1 (stereo not given),95 to 99
7,CC(Cl)(Cl)C(=O)NC(=O)C(N)=O,110
